Laboratory results taken from patent US20230150970A1, “AMINOPYRIMIDINE DERIVATIVES AND THEIR USE AS ARYL HYDROCARBON RECEPTOR MODULATORS” (DONG-A ST CO., LTD., priority 2020, published 2023).

What follows are molecules tested against T1, AhR (Homo sapiens, UniProt P35869) (assay: In Vitro Assay 1: XRE-luciferase reporter assay, antagonism in human cell line (HepG2)). Details: Assay 1: AhR-Luc Human Antagonism (IC50, nM), values marked *: kynurenine 50 μM, 6 hours.
T1 sequence (P35869 11-848): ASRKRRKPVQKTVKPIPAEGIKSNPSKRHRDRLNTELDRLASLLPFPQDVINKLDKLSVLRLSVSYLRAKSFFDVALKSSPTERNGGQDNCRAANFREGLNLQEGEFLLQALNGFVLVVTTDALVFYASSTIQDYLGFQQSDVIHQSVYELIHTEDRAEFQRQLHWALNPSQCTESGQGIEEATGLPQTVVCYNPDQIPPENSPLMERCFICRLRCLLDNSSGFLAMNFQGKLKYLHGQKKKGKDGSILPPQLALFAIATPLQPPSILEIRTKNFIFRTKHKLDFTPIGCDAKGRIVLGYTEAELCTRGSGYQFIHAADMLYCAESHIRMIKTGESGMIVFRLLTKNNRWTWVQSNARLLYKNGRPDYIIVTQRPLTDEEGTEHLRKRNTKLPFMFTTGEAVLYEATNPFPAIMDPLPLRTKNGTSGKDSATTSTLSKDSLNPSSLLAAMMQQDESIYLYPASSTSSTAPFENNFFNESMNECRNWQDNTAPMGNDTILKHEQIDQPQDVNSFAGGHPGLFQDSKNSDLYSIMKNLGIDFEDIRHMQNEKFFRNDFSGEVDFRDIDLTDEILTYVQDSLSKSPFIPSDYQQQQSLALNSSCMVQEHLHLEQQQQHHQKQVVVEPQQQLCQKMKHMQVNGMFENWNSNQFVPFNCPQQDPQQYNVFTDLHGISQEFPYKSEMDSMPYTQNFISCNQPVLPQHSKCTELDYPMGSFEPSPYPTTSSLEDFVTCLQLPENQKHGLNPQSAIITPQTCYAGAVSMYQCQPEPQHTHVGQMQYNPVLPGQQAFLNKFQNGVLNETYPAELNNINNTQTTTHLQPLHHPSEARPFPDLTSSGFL

Compared with `O[C@@H]1CCCC[C@H]1Nc1cc(-c2ccc(Cl)cc2)nc(-c2cccnc2)n1` (relative stereo) [Example 35, trans-2-((6-(4-chlorophenyl)-2-(pyridin-3-yl)pyrimidin-4-yl)amino)cyclohexan-1-ol], `O[C@@H]1CCC[C@H]1Nc1cc(-c2ccc(Cl)cc2)nc(-c2cccnc2)n1` (relative stereo) [Example 68, trans-2-((6-(4-chlorophenyl)-2-(pyridin-3-yl)pyrimidin-4-yl)amino)cyclopentan-1-ol] is lower in IC50: > 1000 nM for the first, 10 to 100 nM for the second.

First: C[C@@H]1CN(c2cc(-c3ccc(Cl)cc3)nc(-c3cccnc3)n2)[C@@H](C)CN1 (relative stereo) [Example 103, Trans-4-(4-chlorophenyl)-6-(2,5-dimethylpiperazin-1-yl)-2-(pyridin-3-yl)pyrimidine]
Second: CCNc1cc(-c2ccc(Cl)cc2)nc(-c2cccnc2)n1 [Example 21, 6-(4-chlorophenyl)-N-ethyl-2-(pyridin-3-yl)pyrimidin-4-amine]
The IC50 of the first is higher: > 1000 nM for the first, 100 to 1000 nM for the second.

Compared with `Clc1ccc(-c2cc(N[C@@H]3COC[C@H]3N3CCCC3)nc(-c3cccnc3)n2)cc1` (relative stereo) [Example 201, Trans-6-(4-chlorophenyl)-2-(pyridin-3-yl)-N-(4-(pyrrolidin-1-yl)tetrahydrofuran-3-yl)pyrimidin-4-amine], `O[C@@H]1CCC[C@H]1Nc1cc(-c2ccc(Cl)cc2)nc(-c2cccnc2)n1` [Example 29, (1R,2R)-2-((6-(4-chlorophenyl)-2-(pyridin-3-yl)pyrimidin-4-yl)amino)cyclopentan-1-ol] is lower in IC50: > 1000 nM for the first, 10 to 100 nM for the second.

Compared with `CC(C)N1C[C@@H](O)[C@H](Nc2cc(-c3ccc(Cl)cc3)nc(-c3cccnc3)n2)C1` (relative stereo) [Example 209, Trans-4-((6-(4-chlorophenyl)-2-(pyridin-3-yl)pyrimidin-4-yl)amino)-1-isopropylpyrrolidin-3-ol], `O[C@H]1CCC[C@H]1Nc1cc(-c2ccc(Cl)cc2)nc(-c2cccnc2)n1` [Example 30, (1S,2R)-2-((6-(4-chlorophenyl)-2-(pyridin-3-yl)pyrimidin-4-yl)amino)cyclopentan-1-ol] is lower in IC50: > 1000 nM for the first, 10 to 100 nM for the second.

First: C[C@@H](CO)Nc1cc(-c2ccc(Cl)cc2)nc(-c2cccnc2)n1 [Example 2, (S)-2-((6-(4-chlorophenyl)-2-(pyridin-3-yl)pyrimidin-4-yl)amino)propan-1-ol]
Second: C[C@H](CO)Nc1cc(-c2ccc(Cl)cc2)nc(-c2cccnc2)n1 [Example 11, (R)-2-((6-(4-chlorophenyl)-2-(pyridin-3-yl)pyrimidin-4-yl)amino)propan-1-ol]
The IC50 of the first is higher: 100 to 1000 nM for the first, 10 to 100 nM for the second. The second is the more potent here.

First: C[C@@H](CO)Nc1nc(-c2ccc(Cl)cc2)cc(-c2cccnc2)n1 [Example 3, (S)-2-((4-(4-chlorophenyl)-6-(pyridin-3-yl)pyrimidin-2-yl)amino)propan-1-ol]
Second: CC(C)(CO)Nc1nc(-c2ccc(Cl)cc2)cc(-c2cccnc2)n1 [Example 5, 2-((4-(4-chlorophenyl)-6-(pyridin-3-yl)pyrimidin-2-yl)amino)-2-methylpropan-1-ol]
The IC50 of the first is lower: 100 to 1000 nM for the first, > 1000 nM for the second. The first is the more potent here.

Compared with `CC(C)(CO)Nc1cc(-c2ccc(Cl)cc2)nc(-c2cccnc2)n1` [Example 4, 2-((6-(4-chlorophenyl)-2-(pyridin-3-yl)pyrimidin-4-yl)amino)-2-methylpropan-1-ol], `CC(C)(C)Nc1cc(-c2ccc(Cl)cc2)nc(-c2cccnc2)n1` [Example 28, N-(tert-butyl)-6-(4-chlorophenyl)-2-(pyridin-3-yl)pyrimidin-4-amine] is higher in IC50: 100 to 1000 nM for the first, > 1000 nM for the second.

First: OCCNc1cc(-c2ccc(Cl)cc2)nc(-c2cccnc2)n1 [Example 6, 2-((6-(4-chlorophenyl)-2-(pyridin-3-yl)pyrimidin-4-yl)amino)ethan-1-ol]
Second: OCCCNc1cc(-c2ccc(Cl)cc2)nc(-c2cccnc2)n1 [Example 7, 3-((6-(4-chlorophenyl)-2-(pyridin-3-yl)pyrimidin-4-yl)amino)propan-1-ol]
The IC50 of the first is lower: 100 to 1000 nM for the first, > 1000 nM for the second.

`C[C@H](O)CNc1cc(-c2ccc(Cl)cc2)nc(-c2cccnc2)n1` [Example 8, (S)-1-((6-(4-chlorophenyl)-2-(pyridin-3-yl)pyrimidin-4-yl)amino)propan-2-ol] and `C[C@@H](O)CNc1cc(-c2ccc(Cl)cc2)nc(-c2cccnc2)n1` [Example 9, (R)-1-((6-(4-chlorophenyl)-2-(pyridin-3-yl)pyrimidin-4-yl)amino)propan-2-ol] fall in the same range of IC50: 100 to 1000 nM for the first, 100 to 1000 nM for the second.

`OCC(O)CNc1cc(-c2ccc(Cl)cc2)nc(-c2cccnc2)n1` (stereo not shown) [Example 10, 3-((6-(4-chlorophenyl)-2-(pyridin-3-yl)pyrimidin-4-yl)amino)propane-1,2-diol] and `CCC(O)CNc1cc(-c2ccc(Cl)cc2)nc(-c2cccnc2)n1` (stereo not shown) [Example 24, 1-((6-(4-chlorophenyl)-2-(pyridin-3-yl)pyrimidin-4-yl)amino)butan-2-ol] fall in the same range of IC50: 100 to 1000 nM for the first, 100 to 1000 nM for the second.

First: CC(C)C(CO)Nc1cc(-c2ccc(Cl)cc2)nc(-c2cccnc2)n1 (stereo not shown) [Example 12, 2-((6-(4-chlorophenyl)-2-(pyridin-3-yl)pyrimidin-4-yl)amino)-3-methylbutan-1-ol]
Second: CC(C)[C@@H](CO)Nc1cc(-c2ccc(Cl)cc2)nc(-c2cccnc2)n1 [Example 13, (S)-2-((6-(4-chlorophenyl)-2-(pyridin-3-yl)pyrimidin-4-yl)amino)-3-methylbutan-1-ol]
The IC50 of the first is lower: 100 to 1000 nM for the first, > 1000 nM for the second.

`CC(C)[C@H](CO)Nc1cc(-c2ccc(Cl)cc2)nc(-c2cccnc2)n1` [Example 14, (R)-2-((6-(4-chlorophenyl)-2-(pyridin-3-yl)pyrimidin-4-yl)amino)-3-methylbutan-1-ol] and `CCC(CO)Nc1cc(-c2ccc(Cl)cc2)nc(-c2cccnc2)n1` (stereo not shown) [Example 15, 2-((6-(4-chlorophenyl)-2-(pyridin-3-yl)pyrimidin-4-yl)amino)butan-1-ol] cannot be ordered by IC50: > 1000 nM for the first, > 1000 nM for the second.

First: OCC(CO)Nc1cc(-c2ccc(Cl)cc2)nc(-c2cccnc2)n1 [Example 16, 2-((6-(4-chlorophenyl)-2-(pyridin-3-yl)pyrimidin-4-yl)amino)propane-1,3-diol]
Second: CCCNc1cc(-c2ccc(Cl)cc2)nc(-c2cccnc2)n1 [Example 22, 6-(4-chlorophenyl)-N-propyl-2-(pyridin-3-yl)pyrimidin-4-amine]
The IC50 of the first is higher: > 1000 nM for the first, 100 to 1000 nM for the second. The second is the more potent here.

`O[C@@H](CNc1cc(-c2ccc(Cl)cc2)nc(-c2cccnc2)n1)c1ccccc1` [Example 17, (R)-2-((6-(4-chlorophenyl)-2-(pyridin-3-yl)pyrimidin-4-yl)amino)-1-phenylethan-1-ol] and `O[C@H](CNc1cc(-c2ccc(Cl)cc2)nc(-c2cccnc2)n1)c1ccccc1` [Example 18, (S)-2-((6-(4-chlorophenyl)-2-(pyridin-3-yl)pyrimidin-4-yl)amino)-1-phenylethan-1-ol] cannot be ordered by IC50: > 1000 nM for the first, > 1000 nM for the second.

Compared with `Clc1ccc(-c2cc(NCC3CCOCC3)nc(-c3cccnc3)n2)cc1` [Example 19, 6-(4-chlorophenyl)-2-(pyridin-3-yl)-N-((tetrahydro-2H-pyran-4-yl)methyl)pyrimidin-4-amine], `Clc1ccc(-c2cc(NCC3CC3)nc(-c3cccnc3)n2)cc1` [Example 25, 6-(4-chlorophenyl)-N-(cyclopropylmethyl)-2-(pyridin-3-yl)pyrimidin-4-amine] is higher in IC50: 100 to 1000 nM for the first, > 1000 nM for the second.

`CN(C)CCCNc1cc(-c2ccc(Cl)cc2)nc(-c2cccnc2)n1` [Example 20, N^1-(6-(4-chlorophenyl)-2-(pyridin-3-yl)pyrimidin-4-yl)-N^3,N^3-dimethylpropane-1,3-diamine] and `CCCCNc1cc(-c2ccc(Cl)cc2)nc(-c2cccnc2)n1` [Example 23, N-butyl-6-(4-chlorophenyl)-2-(pyridin-3-yl)pyrimidin-4-amine] cannot be ordered by IC50: > 1000 nM for the first, > 1000 nM for the second.

First: Clc1ccc(-c2cc(NC3CCCC3)nc(-c3cccnc3)n2)cc1 [Example 26, 6-(4-chlorophenyl)-N-cyclopentyl-2-(pyridin-3-yl)pyrimidin-4-amine]
Second: O[C@H]1CC[C@H](Nc2cc(-c3ccc(Cl)cc3)nc(-c3cccnc3)n2)CC1 [Example 34, trans-4-((6-(4-chlorophenyl)-2-(pyridin-3-yl)pyrimidin-4-yl)amino)cyclohexan-1-ol]
The IC50 of the first is higher: > 1000 nM for the first, 10 to 100 nM for the second.

`Clc1ccc(-c2cc(NCc3ccccn3)nc(-c3cccnc3)n2)cc1` [Example 31, 6-(4-chlorophenyl)-N-(pyridin-2-ylmethyl)-2-(pyridin-3-yl)pyrimidin-4-amine] and `Clc1ccc(-c2cc(NCc3cccnc3)nc(-c3cccnc3)n2)cc1` [Example 32, 6-(4-chlorophenyl)-2-(pyridin-3-yl)-N-(pyridin-3-ylmethyl)pyrimidin-4-amine] fall in the same range of IC50: 100 to 1000 nM for the first, 100 to 1000 nM for the second.

In the case of `Clc1ccc(-c2cc(NCc3ccncc3)nc(-c3cccnc3)n2)cc1` [Example 33, 6-(4-chlorophenyl)-2-(pyridin-3-yl)-N-(pyridin-4-ylmethyl)pyrimidin-4-amine], the IC50 is reported as 100 to 1000 nM.
